Legend:
SARS-CoV-2 nsp14 = SARS-CoV-2 nsp14 (Severe acute respiratory syndrome coronavirus 2, UniProt P0DTD1); assay: biochemical
[1] = target: T1, human Glycine N-Methyltransferase (GNMT) (Homo sapiens, UniProt Q14749); assay: HTRF methyltransferase selectivity assay, human GNMT; format: biochemical
T1 construct: purchased MyBioSource MBS636160
T1 sequence (Q14749 1-295): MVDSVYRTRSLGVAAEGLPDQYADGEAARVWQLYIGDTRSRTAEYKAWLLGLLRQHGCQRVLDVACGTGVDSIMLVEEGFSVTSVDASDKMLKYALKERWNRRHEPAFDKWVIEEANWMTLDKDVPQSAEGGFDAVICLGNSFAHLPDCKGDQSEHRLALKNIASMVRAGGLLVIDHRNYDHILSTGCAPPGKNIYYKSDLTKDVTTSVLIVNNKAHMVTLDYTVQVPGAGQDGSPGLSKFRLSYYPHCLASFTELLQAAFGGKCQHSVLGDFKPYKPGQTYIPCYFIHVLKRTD

SARS-CoV-2 nsp16/nsp10 = SARS-CoV-2 nsp16/nsp10 (Severe acute respiratory syndrome coronavirus 2, UniProt P0DTD1); assay: biochemical

Row | SMILES | Percent inhibition at 100 μM, nsp14 (SARS-CoV-2 nsp14) | Percent inhibition at 100 μM, nsp16 (SARS-CoV-2 nsp16/nsp10) | also measured
1 | Cc1nc(O)cc(CNc2nc3c(c(=O)[nH]2)Cc2ccccc2OC3)n1 [ZINC000095519272] | 49 ±17% | 57 ±13% | IC50 (SARS-CoV-2 nsp14; HTRF, SAM 10 µM, GpppG 4 µM, read-out: IC50 nsp14): ~200 µM; Ligand Efficiency (LE) nsp14 (SARS-CoV-2 nsp14; estimated from IC50 values): 0.19 kcal/mol; Percent inhibition at 100 μM, Human [1]: 70 ±3%; IC50 ([1]; HTRF, SAM 10 µM, glycine 5 mM, read-out: IC50 Human (hMtase, human glycine N-methyltransferase)): 53 ± 3 µM; Ligand Efficiency (LE) Human (hMtase) ([1]; estimated from IC50 values): 0.22 kcal/mol; IC50 (SARS-CoV-2 nsp16/nsp10; HTRF, nsp16/nsp10, SAM 10 µM, m7GpppA-RNA, read-out: IC50 nsp16): 95 ± 4 µM; Ligand Efficiency (LE) nsp16 (SARS-CoV-2 nsp16/nsp10; estimated from IC50 values): 0.21 kcal/mol
2 | COc1ccccc1CN1CC(C(=O)NCc2n[nH]c(=O)[nH]2)CCC1=O (centres unmarked) [ZINC000092001674] | 0 ±7% | 22 ±12% | Percent inhibition at 100 μM, Human [1]: 44 ±8%
3 | Cc1nc2ccc(Cl)cc2cc1C(=O)Nc1ccc(C(N)=O)cc1 [ZINC000019718669] | 49 ±16% | 66 ±9% | Percent inhibition at 100 μM, Human [1]: 52 ±4%
4 | O=C(Cn1ccc(=O)c2ccccc21)NCCSc1cnn[nH]1 [ZINC000218615582] | 21 ±3% | 51 ±4% | Percent inhibition at 100 μM, Human [1]: 55 ±2%
5 | O=C(CSc1nc(CC(=O)Nc2cccc3nsnc23)cs1)Nc1ccc(F)cc1 [Compound 009-741-602] | 25 ±2% | 45 ±5% | Percent inhibition at 100 μM, Human [1]: 24 ±7%
6 | CC[C@H](C)[C@H](N)C(=O)NS(=O)(=O)OC[C@H]1O[C@@H](n2cnc3c(N)ncnc32)[C@H](O)[C@@H]1O [ZINC000013488353] | 8 ±5% | 34 ±6% | –
7 | O=C(Nc1ccc(N2CCOCC2)cc1)c1oc2ccccc2c1CSc1nnc[nH]1 [ZINC000003404544] | 3 ±2% | 6 ±8% | –
8 | CC(C)CC(C(=O)OCC(=O)Nc1cccc(Cl)c1)N1C(=O)C2CC=CCC2C1=O (centres unmarked) [ZINC000019078629] | 8 ±3% | 37 ±9% | –
9 | O=C(CC1(C(=O)O)CC(c2ccc(F)cc2)=NO1)Nc1cccc(C(=O)O)c1 (centres unmarked) [ZINC000072406141] | 14 ±7% | 31 ±8% | –
10 | O=C(CP(=O)(O)O)N=c1[nH]c2ccc(Cl)cc2s1 [ZINC000020502712] | 7 ±6% | 17 ±7% | –
11 | CCc1n[nH]c2c1CN(C(=O)c1cccc(-c3cc(O)nc(N)n3)c1)CC2 [ZINC000426470786] | 1 ±6% | 8 ±5% | –
12 | O=C(CCc1n[nH]c2c1CCCC2)NCc1cc(O)ncn1 [ZINC000952975967] | 2 ±7% | -24 ±4% | –
13 | COc1c(C)c2c(c(O)c1CC=C(C)CCC(=O)Nc1nnc[nH]1)C(=O)OC2 [ZINC000096115284] | 5 ±4% | -68 ±6% | –
14 | Cc1nc(CC(=O)N2CCCC(c3nc4ccccc4s3)C2)cs1 (centres unmarked) [Compound 021-760-906] | 10 ±2% | 28 ±6% | –
15 | O=C(c1ccc(Cn2ccnc2)o1)N1CCc2[nH]c3ccc(Cl)cc3c2C1 [ZINC000072429175] | 0 ±4% | 6 ±5% | –
16 | Cc1csc(C2CCCN(C(=O)CCn3cnc4c(N)ncnc43)C2)n1 (centres unmarked) [Compound 046-114-939] | 15 ±4% | 37 ±13% | –
17 | Nc1nc2c(c(=O)[nH]1)CC(CCc1ccc(C(=O)NC(CCC(=O)O)C(=O)O)cc1)CN2 (centres unmarked) [ZINC000077301924] | 5 ±6% | 15 ±10% | –
18 | CN(C)c1nc2c(c(N(C)C)n1)CCN(C(=O)[C@@H](N)Cc1ccc(O)cc1)C2 [ZINC000071682020] | 12 ±5% | 9 ±8% | –
19 | O=C(CCCn1cncn1)N1CCCC(c2nc3ccccc3s2)C1 (centres unmarked) [Compound 045-938-897] | 7 ±2% | -29 ±5% | –
20 | NC(=O)Cn1cnc2c(cnn2CCO)c1=O [ZINC000004940485] | 2 ±0% | 6 ±6% | –
21 | CC(C)Cn1c(CNC(=O)c2ccccc2C(F)(F)F)nnc1SCc1ccncc1 [ZINC000012152850] | 2 ±8% | 19 ±6% | –
22 | CN1CC(=O)N(c2cccc(NC(=O)NC[C@H](O)CO)c2)C1=O [ZINC000426716892] | -1 ±2% | 30 ±2% | –
23 | O=C(O)c1cc(CN2CC[C@@H](c3ccc4ccccc4c3)[C@H](O)C2)ccc1O [ZINC000065452571] | -3 ±8% | -2 ±5% | –
24 | O=C(C1CCc2sc(-c3ccncc3)nc2C1)N1CCc2c(nc[nH]c2=O)C1 (centres unmarked) [ZINC1772809556] | 15 ±9% | 5 ±8% | –

Row | SMILES | Percent inhibition at 100 μM, nsp14 (SARS-CoV-2 nsp14) | Percent inhibition at 100 μM, nsp16 (SARS-CoV-2 nsp16/nsp10) | also measured
25 | O=C(CCc1ccc(O)cc1)NC(c1ccc2c(c1)CCO2)C1CC(O)C1 (centres unmarked) [ZINC000220681335] | 0 ±2% | 10 ±5% | –
26 | Cc1ccc(Oc2ncccc2CNC(=O)c2cnc(O)cc2O)cn1 [ZINC000067754517] | 11 ±3% | 39 ±8% | –
27 | COc1ccc(N2C(=O)CC(c3c(C)[nH]n(-c4nc5ccccc5s4)c3=O)C2=O)cc1 (centres unmarked) [ZINC000018085229] | 11 ±6% | 17 ±6% | –
28 | CC(=O)c1cccc(OCc2cc(C(=O)NCC(N)=O)n[nH]2)c1 [ZINC000067920483] | 2 ±2% | -1 ±3% | –
29 | O=C(O)CCC(=O)Nc1nc2n(n1)C(c1ccccc1)CC(=O)N2 (centres unmarked) [ZINC000000095711] | -16 ±0% | -77 ±13% | –
30 | CCOc1ccccc1OCC(=O)N1CCCC(c2nc3ccccc3s2)C1 (centres unmarked) [Compound 005-679-672] | 6 ±0% | -59 ±2% | –
31 | O=C(CCn1cncn1)N1CCCC1c1nc2ccccc2s1 (centres unmarked) [Compound 009-447-345] | 2 ±0% | 1 ±1% | –
32 | Cc1cc(=O)n2c(n1)NC(N1CCOCC1)=NC2c1ccccc1 (centres unmarked) [ZINC000104279901] | -14 ±2% | -33 ±4% | –
33 | CC1=C(C(=O)O)N2C(=O)C(NC(=O)C(N)c3ccc(O)cc3)C2SC1 (centres unmarked) [ZINC000003830391] | -18 ±6% | -8 ±1% | –
34 | O=C(Cc1ccc2c(c1)CCO2)Nc1ccc2nc[nH]c(=O)c2c1 [ZINC000170622294] | -2 ±2% | -6 ±3% | –
35 | Cn1nccc1CCC(=O)N1CCCC(c2nc3ccccc3s2)C1 (centres unmarked) [Compound 042-575-680] | 8 ±1% | 33 ±9% | –
36 | O=C(Nc1ccccc1-c1ccccc1)C1CCCN(c2ccc(-n3cncn3)nn2)C1 (centres unmarked) [ZINC000096124096] | 9 ±7% | 10 ±1% | –
37 | Cn1c(=O)c(=O)n(CC(=O)NCCN(CCc2ccccc2)Cc2ccco2)c2ccccc21 [ZINC000021649685] | 10 ±9% | 7 ±4% | –
38 | O=C(Cc1nnc(O)c2ccccc12)NCC(O)c1ccccc1 (centres unmarked) [ZINC000009340377] | 5 ±4% | 2 ±5% | –
39 | COc1ccc(C2=NN(C(=O)CCc3ccc4c(c3)OCO4)C(O)(C(F)(F)F)C2)cc1 (centres unmarked) [ZINC000016448507] | 9 ±4% | 11 ±5% | –
40 | Cn1cnn(CCC(=O)N2CCCC(c3nc4ccccc4s3)C2)c1=O (centres unmarked) [Compound 046-705-372] | 5 ±3% | 15 ±8% | –
41 | Nc1ncnc2c1ncn2CC(O)CO (centres unmarked) [ZINC000000370772] | -9 ±12% | -34 ±9% | –
42 | CCOc1c(Cl)cc(C(=O)Nc2cccc(C(=O)O)c2)cc1Cl [ZINC000004649202] | -1 ±3% | 14 ±5% | –
43 | COc1ccc(CCNC(=O)C2C3C=CC4(CN(c5ccc6c(c5)OCO6)C(=O)C24)O3)cc1 (centres unmarked) [ZINC000012895535] | 5 ±2% | -15 ±6% | –
44 | Cn1nc(CC(=O)NCCCc2nnc3ccccn23)c2ccccc2c1=O [ZINC000095478169] | -6 ±2% | -53 ±8% | –
45 | C=CCn1c(=O)c(=O)n(CC(=O)NCCN2CCN(c3cc(Cl)ccc3C)CC2)c2ccccc21 [ZINC000033268761] | 9 ±3% | 32 ±7% | –
46 | O=C(CC1(O)C(=O)N(Cc2ccc3c(c2)OCO3)c2ccccc21)c1ccc(F)cc1 (centres unmarked) [ZINC000000783765] | -10 ±3% | -3 ±4% | –
47 | CN(C)c1nc2c(c(=O)[nH]1)CCN(C(=O)c1n[nH]cc1Cl)C2 [ZINC000072172639] | -1 ±2% | 29 ±5% | –
48 | COc1cccc(C2CC(O)=Nc3c2c(C)nn3-c2ncnc3[nH]cnc23)c1 (centres unmarked) [ZINC000020745418] | -8 ±5% | -7 ±2% | –

Source: publication PMC8705538, “Discovery of SARS-CoV-2 Nsp14 and Nsp16 Methyltransferase Inhibitors by High-Throughput Virtual Screening” (Pharmaceuticals, 2021)
